Assay results from BindingDB's records for doi:10.1021/jm048993p (Merck Research Laboratories, 2005).

Biological target: Peroxisome proliferator-activated receptor alpha (Mesocricetus auratus)
Assay: Agonist activity against hamster Peroxisome proliferator activated receptor alpha

EC50: 460 nM
Compound: CCCc1cc2c(C(F)(F)F)noc2c(CCC)c1OC(C)(C)C(=O)O [2-(5,7-Dipropyl-3-trifluoromethyl-benzo[d]isoxazol-6-yloxy)-2-methyl-propionic acid]
